# Test results taken from ChEMBL document CHEMBL3885881, “DrugMatrix”.
# Organism: Rattus norvegicus
# Assay: DrugMatrix - Regimen: Daily Repeat
# Assay type: toxicity, organism-based, Sprague-Dawley
# Set-up: regimen Daily Repeat, gender Male, age 6-8 weeks
# Details: in vivo, po, route oral GAVAGE, vehicle 100 % WATER; for ABSOLUTE BASOPHIL / ABSOLUTE EOSINOPHIL / ABSOLUTE LYMPHOCYTE / ABSOLUTE MONOCYTE / ABSOLUTE SEGMENTED NEUTROPHIL / BASOPHIL / EOSINOPHIL / ERYTHROCYTE COUNT / HEMATOCRIT / HEMOGLOBIN / LEUKOCYTE COUNT / LYMPHOCYTE / MEAN CORPUSCULAR HEMOGLOBIN / MEAN CORPUSCULAR HEMOGLOBIN CONCENTRATION / MEAN CORPUSCULAR VOLUME / MONOCYTE / NEUTROPHIL / NUCLEATED RED BLOOD CELLS / PLATELET COUNT: tissue Blood; for ALANINE AMINOTRANSFERASE / ALBUMIN / ALKALINE PHOSPHATASE / ASPARTATE AMINOTRANSFERASE / BLOOD UREA NITROGEN / CARBON DIOXIDE / CHLORIDE / CHOLESTEROL / CREATINE PHOSPHOKINASE / CREATININE / GLUCOSE / LACTATE DEHYDROGENASE / LIPASE / PHOSPHORUS / POTASSIUM / SODIUM / TOTAL BILIRUBIN / TOTAL PROTEIN / URIC ACID: tissue Plasma
# [1] = 5 mg/kg, 120 h, dose level Low, time 5 day
# [2] = 15 mg/kg, 72 h, dose level High, time 3 day
# [3] = 15 mg/kg, 120 h, dose level High, time 5 day
compound,measurement,setting,value
C[N+](C)(C)CCOC(N)=O.[Cl-] [CARBACHOL],ABSOLUTE BASOPHIL,[1],0 CELLS/uL
same,ABSOLUTE EOSINOPHIL,[1],0 CELLS/uL
same,ABSOLUTE LYMPHOCYTE,[1],11606.67 CELLS/uL
same,ABSOLUTE MONOCYTE,[1],117 CELLS/uL
same,ABSOLUTE SEGMENTED NEUTROPHIL,[1],1076.33 CELLS/uL
same,BASOPHIL,[1],0%
same,EOSINOPHIL,[1],0%
same,ERYTHROCYTE COUNT,[1],5.68 x10E6/uL
same,HEMATOCRIT,[1],35.2%
same,HEMOGLOBIN,[1],13.47 G/DL
same,LEUKOCYTE COUNT,[1],12.8 x10E3/uL
same,LYMPHOCYTE,[1],90.33%
same,MEAN CORPUSCULAR HEMOGLOBIN,[1],23.7 pg
same,MEAN CORPUSCULAR HEMOGLOBIN CONCENTRATION,[1],38.27 G/DL
same,MEAN CORPUSCULAR VOLUME,[1],62 fL
same,MONOCYTE,[1],1%
same,NEUTROPHIL,[1],8.67%
same,NUCLEATED RED BLOOD CELLS,[1],0 /100WBC
same,PLATELET COUNT,[1],1163.67 x10E3/uL
same,ALANINE AMINOTRANSFERASE,[1],62.33 u/L
same,ALBUMIN,[1],3.97 G/DL
same,ALKALINE PHOSPHATASE,[1],368 u/L
same,ASPARTATE AMINOTRANSFERASE,[1],96.33 u/L
same,BLOOD UREA NITROGEN,[1],14.67 mg/dL
same,CARBON DIOXIDE,[1],33.33 mmol/L
same,CHLORIDE,[1],99.33 MEQ/L
same,CHOLESTEROL,[1],68.33 mg/dL
same,CREATINE PHOSPHOKINASE,[1],498.67 u/L
same,CREATININE,[1],0.15 mg/dL
same,GLUCOSE,[1],136.67 mg/dL
same,LACTATE DEHYDROGENASE,[1],139.33 u/L
same,LIPASE,[1],8.67 u/L
same,PHOSPHORUS,[1],10.83 mg/dL
same,POTASSIUM,[1],5.88 MEQ/L
same,SODIUM,[1],143.33 MEQ/L
same,TOTAL BILIRUBIN,[1],0.2 mg/dL
same,TOTAL PROTEIN,[1],5.77 G/DL
same,URIC ACID,[1],0.63 mg/dL
same,ABSOLUTE BASOPHIL,[2],0 CELLS/uL
same,ABSOLUTE EOSINOPHIL,[2],0 CELLS/uL
same,ABSOLUTE LYMPHOCYTE,[2],9349.33 CELLS/uL
same,ABSOLUTE MONOCYTE,[2],72.33 CELLS/uL
same,ABSOLUTE SEGMENTED NEUTROPHIL,[2],311.67 CELLS/uL
same,BASOPHIL,[2],0%
same,EOSINOPHIL,[2],0%
same,ERYTHROCYTE COUNT,[2],5.27 x10E6/uL
same,HEMATOCRIT,[2],33.67%
same,HEMOGLOBIN,[2],12.87 G/DL
same,LEUKOCYTE COUNT,[2],9.73 x10E3/uL
same,LYMPHOCYTE,[2],95.67%
same,MEAN CORPUSCULAR HEMOGLOBIN,[2],24.4 pg
same,MEAN CORPUSCULAR HEMOGLOBIN CONCENTRATION,[2],38.23 G/DL
same,MEAN CORPUSCULAR VOLUME,[2],63.83 fL
same,MONOCYTE,[2],0.67%
same,NEUTROPHIL,[2],3.67%
same,NUCLEATED RED BLOOD CELLS,[2],0 /100WBC
same,PLATELET COUNT,[2],1174 x10E3/uL
same,ALANINE AMINOTRANSFERASE,[2],42.33 u/L
same,ALBUMIN,[2],3.9 G/DL
same,ALKALINE PHOSPHATASE,[2],336.33 u/L
same,ASPARTATE AMINOTRANSFERASE,[2],77 u/L
same,BLOOD UREA NITROGEN,[2],11.33 mg/dL
same,CARBON DIOXIDE,[2],34 mmol/L
same,CHLORIDE,[2],101 MEQ/L
same,CHOLESTEROL,[2],72 mg/dL
same,CREATINE PHOSPHOKINASE,[2],402.67 u/L
same,CREATININE,[2],0.11 mg/dL
same,GLUCOSE,[2],134.67 mg/dL
same,LACTATE DEHYDROGENASE,[2],129.33 u/L
same,LIPASE,[2],9 u/L
same,PHOSPHORUS,[2],11.9 mg/dL
same,POTASSIUM,[2],5.89 MEQ/L
same,SODIUM,[2],146.47 MEQ/L
same,TOTAL BILIRUBIN,[2],0.13 mg/dL
same,TOTAL PROTEIN,[2],5.67 G/DL
same,URIC ACID,[2],0.5 mg/dL
same,ABSOLUTE BASOPHIL,[3],0 CELLS/uL
same,ABSOLUTE EOSINOPHIL,[3],48 CELLS/uL
same,ABSOLUTE LYMPHOCYTE,[3],6680.67 CELLS/uL
same,ABSOLUTE MONOCYTE,[3],148.67 CELLS/uL
same,ABSOLUTE SEGMENTED NEUTROPHIL,[3],722.67 CELLS/uL
same,BASOPHIL,[3],0%
same,EOSINOPHIL,[3],0.67%
same,ERYTHROCYTE COUNT,[3],5.28 x10E6/uL
same,HEMATOCRIT,[3],33.7%
same,HEMOGLOBIN,[3],13.03 G/DL
same,LEUKOCYTE COUNT,[3],7.6 x10E3/uL
same,LYMPHOCYTE,[3],87.67%
same,MEAN CORPUSCULAR HEMOGLOBIN,[3],24.73 pg
same,MEAN CORPUSCULAR HEMOGLOBIN CONCENTRATION,[3],38.7 G/DL
same,MEAN CORPUSCULAR VOLUME,[3],63.97 fL
same,MONOCYTE,[3],2%
same,NEUTROPHIL,[3],9.67%
same,NUCLEATED RED BLOOD CELLS,[3],0 /100WBC
same,PLATELET COUNT,[3],1083.67 x10E3/uL
same,ALANINE AMINOTRANSFERASE,[3],53 u/L
same,ALBUMIN,[3],3.73 G/DL
same,ALKALINE PHOSPHATASE,[3],301 u/L
same,ASPARTATE AMINOTRANSFERASE,[3],93 u/L
same,BLOOD UREA NITROGEN,[3],15.67 mg/dL
same,CARBON DIOXIDE,[3],30.67 mmol/L
same,CHLORIDE,[3],101.67 MEQ/L
same,CHOLESTEROL,[3],64 mg/dL
same,CREATINE PHOSPHOKINASE,[3],243.33 u/L
same,CREATININE,[3],0.18 mg/dL
same,GLUCOSE,[3],145.67 mg/dL
same,LACTATE DEHYDROGENASE,[3],116.33 u/L
same,LIPASE,[3],11 u/L
same,PHOSPHORUS,[3],10.67 mg/dL
same,POTASSIUM,[3],5.44 MEQ/L
same,SODIUM,[3],146.13 MEQ/L
same,TOTAL BILIRUBIN,[3],0.1 mg/dL
same,TOTAL PROTEIN,[3],5.47 G/DL
same,URIC ACID,[3],0.57 mg/dL
